In a melting point compilation (Tetko et al.; mined from patent text by program, amines drawn as free bases though some values may be those of a salt):

Compound	melting point [°C]
C=CCN1Cc2nc3c(cnn3CCCC#CC)c(N)c2C1=O	138 to 140
Cn1ncc2c1-c1c(S(C)(=O)=O)sc(S(=O)(=O)Cl)c1CC2	81 to 82
CCOc1cc(O[Si](C)(C)C(C)(C)C)c(C)c(C(=O)OCc2ccc([N+](=O)[O-])cc2)c1C	75 to 76
Cc1ccc(-c2ccc(S(C)(=O)=O)cc2)n1-c1ccc(-c2cccs2)cc1	185 to 186
COc1ccc(S(=O)(=O)N(CCNS(C)(=O)=O)c2ccc(Cl)cc2Cc2c(F)cccc2F)cc1OC	133
CCO[C@@H](Cc1ccc2c(ccn2Cc2nc(-c3ccccc3OC)oc2C)c1)C(=O)O	59 to 60
CC(C)(C(=O)O)c1ccc(O[Si](C)(C)C(C)(C)C)cc1	78 to 80
NC(CC1c2ccccc2Oc2ccccc21)(C(=O)O)c1ccc(C(=O)O)c(O)c1 (stereo unspecified)	191 to 194
COc1ccc2c(c1)sc1nc(C(=O)C3CC3)cn12	213
COc1ccc(S(=O)(=O)NC(C)c2cc(F)ccc2-c2ccccc2F)cc1 (stereo unspecified)	133 to 135
FC(F)(F)C1(c2cc(Cl)cc(Cl)c2)CC(c2ccc(-n3ccnc3)cc2)=NO1 (stereo unspecified)	193 to 195
O=C1NC(=O)C(Cc2ccc(OCCON=Cc3cccc(-c4ccccc4)c3)cc2)S1 (stereo unspecified)	128
COc1cccc2nc(C(F)(F)F)oc(=O)c12	88 to 91
COC(=O)CNC(=O)c1cc2c(C(=O)CN(Cc3ccccc3)C(C)(C)C)ccc(OCc3ccccc3)c2[nH]1	152
COc1ccc2c(O)n[nH]c2c1OC	175
CC(C)c1ccc(C(=O)c2ccc(N)cc2)cc1	110
N#CC(=C(O)c1ccncc1)c1ccc(F)cc1	225
O=[N+]([O-])c1ccnc(N2CCNCC2)c1	92 to 93
Cc1ccc(C(F)C(F)(F)S(=O)(=O)c2ccccc2)cc1 (stereo unspecified)	80 to 82
O=C(O)CNC=C(Nc1cc(Cl)cc(Cl)c1)[N+](=O)[O-]	207
OC(c1ccccc1)(c1ccc(C(F)(F)F)cc1)c1ncc[nH]1 (stereo unspecified)	174 to 176

Compound	melting point [°C]
CCOC(=O)C[C@@H]1C(=O)N(S(=O)(=O)c2ccc(OC)cc2)C=C[C@@H]1c1ccccc1	111 to 113
O=S(=O)(NCCCn1cncn1)c1ccc(Cl)cc1	77 to 79
C=C(C)CCOc1ccc([N+](=O)[O-])cc1Cl	38 to 39
O=C(CCn1cnc2c(=O)[nH]cnc21)NCCCN1CCOCC1	145 to 148
COC(=O)CCC(=O)c1ccc(N2CCOCC2)cc1	120 to 121
COC(=O)C(COC(C)=O)C(=O)OC(C)(C)C (stereo unspecified)	61 to 62
COP1(=O)C=Cc2ccccc21 (stereo unspecified)	89 to 90
COCc1ccc(C(=O)O[C@H](CC(C)C)C(=O)O)o1	73 to 74
Cc1c(S(=O)(=O)C(F)(F)F)cc(-c2ccc(S(C)(=O)=O)cc2)n1-c1ccc(F)cc1	162 to 164
COC(=O)c1cc(C=O)c(NS(C)(=O)=O)c([N+](=O)[O-])c1	158 to 160
CC(=O)Nc1cccc2c(-c3ccc(=O)n(C(C)C)n3)c(-c3ccccc3)nn12	92 to 96
NCCc1coc2ccc3c(c12)CCCO3	110
CCOc1ccc2c(c1)n(C1CCCCC1)c(=O)n2S(=O)(=O)c1ccc(C(=O)Nc2nccs2)cc1OC	213
COc1ccc(-c2cncc(C#N)c2Nc2ccc3[nH]ccc3c2)cc1Br	148 to 150
COc1cc(C=CC=C2SC(=O)NC2=O)ccc1OCc1coc(-c2ccccc2)n1	230 to 231
CN(CCOc1ccc(N)cc1)c1ccncc1	141 to 142
CCCCCS(=O)(=O)NC(=O)/C=C/c1cc(C2CC2)nn1Cc1ccc(C(F)(F)F)cc1Cl	139 to 140
CC(C)(C)c1cc(C(=O)NC2CCCCC2)cc(C(C)(C)C)c1O	236 to 237
CCOC(=O)C(=CNN(C)C)C(=O)c1cc(F)c(F)c(F)c1F	81
CN(C)CCCOc1ccc(C=CC(=O)N2CCc3c([nH]c4ccccc34)C2c2ccc3c(c2)CCO3)cc1 (stereo unspecified)	186
Cc1c(F)c(N2CCCC(n3ccnn3)C2)c(F)c2c1c(=O)c(C(=O)O)cn2C1CC1 (stereo unspecified)	227 to 228

Compound	melting point [°C]
Cc1ccc(S(=O)(=O)NCC(O)(Cn2cncn2)c2ccc(F)cc2F)cc1 (stereo unspecified)	130 to 136
Nc1nc(-c2ccc(CCN3CCN(c4cccc5cc(F)ccc45)CC3)cc2)cs1	220 to 225
COC(=O)c1ccc(C)c(-n2c(C)cc(OCc3ccccc3CNC(=O)Nc3cc(C(C)(C)C)nn3-c3cccc(OCCO)c3)c(Cl)c2=O)c1	147 to 148
CCCCN(CCCCCN(CCCC)c1ccc(C=O)cc1)c1ccc(C=O)cc1	51 to 52
O=C(CBr)CCc1ccc(Cl)cc1	51
COc1cc2c(c(OC(C)=O)c1)C1CCC3(C)C(=O)C(Br)CC3C1CC2 (stereo unspecified)	188 to 190
OC(=S)CCCc1nn(-c2ccccc2)c2c1CCCC2	105 to 106
CC(C)(COc1ccc(Cl)cc1)C(=O)COc1ccc(Cl)cc1	76 to 77
CN(C)C(=O)c1cc(-c2ccc(-c3ccco3)cc2)n(-c2ccc(S(C)(=O)=O)c(F)c2)n1	167 to 168
O=C(CNC1=Nc2cccc3cccc1c23)NCCCn1ccnc1	145 to 146
CC(C)c1ccc(-c2ccc(/C=C/C(=O)O)s2)cc1	216 to 219
OCC1OC(n2cnc3c(NCC(c4ccccc4)c4ccccc4)nc(Cl)nc32)C(O)C1O (stereo unspecified)	120 to 123
Nc1nnn(CC(F)(F)F)n1	95 to 97
O=C(O)c1c(Cl)c([N+](=O)[O-])cc([N+](=O)[O-])c1Nc1ccc(OCc2ccccc2)cc1	208 to 211
CCOc1cc2oc(=O)c3c(c2cc1OCC)CCN(CCN1CCCCC1)C3	144 to 146
Cc1cc2c(F)cc(F)c(-n3c(=O)cc(C(F)(F)F)n(C)c3=O)c2o1	176 to 178
CO/C(=C\c1ccc(OCCc2nc(-c3ccccc3)oc2C)c2ccsc12)C(=O)O	189 to 190
NCCCP(=O)(O)c1ccccc1	298 to 300
O=C(O)c1ccc(-c2ccc(C(F)(F)F)cc2)s1	227
CNS(=O)(=O)c1ccc(Nc2nc(N)c(C(=O)c3sccc3C)s2)cc1	197 to 200

More lines, now with the values ahead:

melting point [°C]	Compound
48 to 50	O=C(NCc1ncc(C(F)(F)F)cc1Cl)c1c(Cl)nc2c(c1Cl)CCCC2
173 to 174	CCOC(=O)NNc1ccc(-c2ccc(F)cc2)nn1
113 to 115	CC(C)c1cnc(NC(=O)Nc2cccc(N)c2)s1
67 to 70	C=C1C(=O)N(C)CCC1c1cccc(OC)c1 (stereo unspecified)
143 to 144	Cn1c(=O)ccc2cnc(N3CCC[C@H]3CO)nc21
156 to 160	COc1cc(C)c(C(=O)c2c(Cl)cccc2Cl)cc1[N+](=O)[O-]
193 to 195	Cc1ccc2nc3cc(C)c(=O)c(Cl)c-3sc2c1
174 to 175	CC1(c2ccccc2)C(=O)Nc2cc(Cl)ccc2C1=O (stereo unspecified)
123 to 125	O=S=c1cc(-c2ccc(Cl)cc2)ss1
284 to 286	COc1ccc(N2CCOCC2)c2sc(-c3nc4ccccc4[nH]3)nc12
270 to 272	COc1cc(OC)c2c(=O)[nH]c(-c3cc(C)c(OCC(=O)O)c(C)c3)nc2c1
249	O=C1CNc2ncc(I)cc2N1Cc1cccnc1Cl
55 to 56	CC(C)(C)C(=O)OCOC(=O)c1cccnc1Nc1cccc(C(F)(F)F)c1
260 to 262	N#Cc1cnc2ccccc2c1Nc1ccc(Cl)cc1Cl
155 to 158	CC(C)(O)COc1c(-c2ccc(S(N)(=O)=O)cc2)cnn(-c2ccc(F)cc2)c1=O
169 to 172	Nc1ncnc2sc(Cc3cccnc3)c(-c3ccc(NC(=O)Nc4cccc(Cl)c4)cc3)c12
154 to 155	CCn1c(CCl)nc2c([N+](=O)[O-])cc(Br)cc21
221 to 222	CC(C)n1c(=O)ccc2cnc(Nc3ccc(N4CCN(C)CC4)cc3)nc21
114 to 116	Cc1ccc(NC(=O)C(C)C)c(-c2ccnc(SC(F)(F)F)n2)c1
268 to 269	CC(C)S(=O)(=O)c1cc(OCc2ccccc2F)c2[nH]nc(Nc3nccs3)c2c1

melting point [°C]	Compound
149 to 151	O=S1(=O)NCN(C2CCCCCC2)c2cc(Cl)ccc21
186 to 187	CCOC(=O)c1nc(N)sc1-c1ccccn1
145 to 146	O=C(O)CCc1cn(Cc2ccc(OCc3coc(-c4ccccc4)n3)cc2)nc1-c1cccs1
> 250	CCOCc1nc2c(N)nc3cc(-c4cccc(C(N)=O)c4)cnc3c2n1CC(C)(C)O
162 to 163	O=[N+]([O-])c1ccc(NCCc2c[nH]cn2)nc1
236	Cn1c(Sc2ccc(C(=O)O)c(Cl)c2)n[nH]c1=O
186 to 188	Cc1cc2ccc(Cl)c(C(=O)O)c2nc1C(F)(F)F
72 to 75	OCc1cnc(Cl)c(Cl)c1
> 315	O=C1CC(c2coc3ccccc23)=Nc2cc3c(cc21)OCO3
114 to 115	CC(C)Oc1ccc(CCCOc2cc(CCC(=O)O)n(C3CCCCC3)n2)c(Oc2ncc(C(F)(F)F)cc2Cl)c1
156 to 158	O=S(=O)(Nc1cccc2cc(C3=NCC(CCO)S3)[nH]c12)c1cccs1 (stereo unspecified)
75	Cc1cc2cnc(OCCc3ccc(OC(C)(C)C)cc3)nc2o1
231 to 232	CCOC(=O)c1ncc2[nH]c3ccc(Br)cc3c2c1C
112	CCN(CC)CC1CCCCN1CCCCN1c2ccccc2C(=O)Nc2cccnc21 (stereo unspecified)
145 to 146	CCOC(=O)c1c(C)nn2c(-c3cccnc3)ccnc12
163 to 166	O=C(NCc1ccc(C=NO)cc1Cl)C1CC1
138 to 140	CCOC(=O)c1cn(C)c2cc(C(C)(C)C)ccc2c1=O
165 to 166	O=C(Cn1c(-c2cccc(Cl)c2)nc2cccnc21)Nc1ccccn1
> 300	CC1(C)C(=O)Nc2ccc(C3=NNC(=O)CC3)cc21
